Earlier results in patent US9241502B2, “Animal feed compositions capable of reducing the incidence of fescue toxicosis in mammals” (priority 2005, dated 2016).

System: lactating dairy cattle
Conditions: as a single ingredient

Vitamin E
effectiveness against fescue toxicosis: not found to be effective
